Data on 9 compounds can be found in patent US20220274947A1, “NOVEL HETEROARYL-TRIAZOLE COMPOUNDS AS PESTICIDES” (Bayer Aktiengesellschaft, priority 2019, published 2022).

Type in all cases: in vivo
Assay [1] relates to Aedes aegypti strain MONHEIM. The assay can be described thus: Aedes aegypti test (AEDSAE surface treatment & contact assay). The conditions noted are these: exposure 30 minutes, 24 hours after contact, read-out: efficacy (mortality); for mortality at 4 mg/m2: surface concentration 4 mg/m^2, glazed tile; for mortality at 20 mg/m2: surface concentration 20 mg/m^2, glazed tile. Put shortly:
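Compound dissolved in acetone (2 mg/ml) with 2000 ppm rapeseed oil methyl ester, pipetted onto glazed tile and dried. Adult mosquitoes exposed on the surface for 30 min; percent mortality scored 24 h after contact.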

In assay [2] the test system is Myzus persicae. The assay can be described thus: Myzus persicae oral test. Conditions: 120 h, read-out: activity (mortality). Put shortly:
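Percent mortality was recorded at day 5, where 0% means no aphids killed. Compound prepared from an acetone concentrate diluted in water and combined with IPL41 medium containing sugar was offered to mixed-stage green peach aphids, which sucked it through a parafilm seal.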

The next assay relates to Rhipicephalus sanguineus. The assay can be described thus: Rhipicephalus sanguineus in-vitro contact test, adult brown dog ticks (RHIPSA Cont). The conditions noted are these: 48 h, after 48 hours, read-out: activity (efficacy: 100% means all ticks are dead or moribund); for pest or weed control at 5 µg/cm2, 500 g/ha: application rate 5 μg/cm^2 (=500 g/ha); for pest or weed control at 1 µg/cm2, 100 g/ha: application rate 1 μg/cm^2 (=100 g/ha). Summed up:
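Mortality of adult R. sanguineus was judged 48 h after contact with acetone-applied residues on glass tube walls. Ticks that stayed immotile or moved without coordination when heated to 45–50 °C (max 5 min) counted as dead or moribund.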

Assay [3] concerns Myzus persicae. The assay can be described thus: Myzus persicae spray test. Conditions: in Brassica rapa, foliar, 120 h; for mortality at 100 g/ha: read-out: activity (mortality), application rate 100 g/ha, spray, Chinese cabbage leaf disks, after 5 days. Put shortly: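 Aphid mortality in % was assessed 5 days after spraying; leaf disks of Brassica pekinensis carrying mixed-instar green peach aphids were treated. Spray preparation: active compound in acetone plus dimethylformamide, diluted with emulsifier-containing water (1000 ppm).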

The test system of assay [4] is Musca domestica strain WHO—N. The assay can be described thus: Musca domestica test (MUSCDO surface treatment & contact assay). The conditions noted are these: exposure 30 minutes, 24 hours after contact, read-out: efficacy (mortality); for mortality at 4 mg/m2: surface concentration 4 mg/m^2, glazed tile; for mortality at 20 mg/m2: surface concentration 20 mg/m^2, glazed tile. Summed up: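 Compound dissolved in acetone (2 mg/ml) with 2000 ppm rapeseed oil methyl ester and pipetted onto glazed tile; after acetone evaporation, adult flies exposed to dried surface for 30 minutes. Mortality (%) scored 24 hours after contact.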

Another assay has as its system Ctenocephalides felis. The assay can be described thus: Ctenocephalides felis oral test (CTECFE Oral). The conditions noted are these: 48 h, read-out: activity (mortality). Put shortly: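 Percent mortality was recorded 2 days after roughly 20 adult Ctenocephalides felis fed on treated cattle blood. The blood was warmed to 37 °C beneath a parafilm membrane, with the fleas kept at room temperature. Compound was dissolved in DMSO and diluted into the blood to test concentration.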

Take `C[C@H](NC(=O)c1cc(C(F)(F)F)cc(C(F)(F)F)c1)c1ncnn1-c1ccc(C(=O)NC2CC2)cn1` [II-37]: in assay [1], the mortality at 4 mg/m2 lay in the range of 80 to 100% and the mortality at 20 mg/m2 was in the range of 80 to 100%. In the assay on Myzus persicae [2], the mortality at 0.8 ppm amounted to 100% and the mortality at 4 ppm worked out at 100%. In the assay on Rhipicephalus sanguineus, the pest or weed control at 5 µg/cm2, 500 g/ha worked out at 80%. Besides, in the assay with Myzus persicae [3] (read-out: activity (mortality), application rate 500 g/ha, spray, Chinese cabbage leaf disks, after 5 days), the mortality at 500 g/ha came out at 100%.
Consider `C[C@H](NC(=O)c1cc(C(F)(F)F)cc(C(F)(F)F)c1)c1ncnn1-c1ncc(Br)s1` [II-41], for which, in assay [1], the mortality at 4 mg/m2 was in the range of 80 to 100% and the mortality at 20 mg/m2 lay in the range of 80 to 100%. In assay [4], the mortality at 4 mg/m2 fell in the range of 80 to 100% and the mortality at 20 mg/m2 lay in the range of 80 to 100%. In addition, the mortality at 4 ppm with Myzus persicae [2] turned out to be 100%. Further, in the assay on Rhipicephalus sanguineus, the pest or weed control at 1 µg/cm2, 100 g/ha was 100% and the pest or weed control at 5 µg/cm2, 500 g/ha was determined as 100%.
As to `C[C@H](NC(=O)c1cc(Cl)cc(C#N)c1)c1ncnn1-c1ccc(C#N)cn1` [II-57], in assay [1], the mortality at 4 mg/m2 was 80 to 100% and the mortality at 20 mg/m2 was 80 to 100%. Also, the mortality at 100 ppm in the assay with Ctenocephalides felis was determined as 100%. In assay [4], the mortality at 4 mg/m2 was 80 to 100% and the mortality at 20 mg/m2 is 80 to 100%. In the assay with Rhipicephalus sanguineus, the pest or weed control at 1 µg/cm2, 100 g/ha is 100% and the pest or weed control at 5 µg/cm2, 500 g/ha worked out at 100%. Also, the mortality at 100 g/ha in the assay on Myzus persicae [3] was 90%.
As for `Cc1nc([C@H](C)NC(=O)c2cc(Cl)cc(C#N)c2)n(-c2ccc(C#N)cn2)n1` [II-61], in assay [1], the mortality at 4 mg/m2 fell in the range of 80 to 100% and the mortality at 20 mg/m2 is 80 to 100%. In the assay on Ctenocephalides felis, the mortality at 100 ppm amounted to 100%. Also, in assay [4], the mortality at 4 mg/m2 is 80 to 100% and the mortality at 20 mg/m2 fell in the range of 80 to 100%. Moreover, in the assay on Myzus persicae [2], the mortality at 4 ppm is 100%. For the same compound, in the assay on Rhipicephalus sanguineus, the pest or weed control at 1 µg/cm2, 100 g/ha was determined as 100% and the pest or weed control at 5 µg/cm2, 500 g/ha was 100%. For the same compound, the mortality at 100 g/ha in the assay with Myzus persicae [3] stood at 90%.
With `Cc1nc([C@H](C)NC(=O)c2cc(Cl)nc(C(F)(F)F)c2)n(-c2ccc(C#N)cn2)n1` [II-62], in assay [1], the mortality at 4 mg/m2 was 80 to 100% and the mortality at 20 mg/m2 lay within 80 to 100%. Also, the mortality at 100 ppm in the assay on Ctenocephalides felis was 100%. In addition, in assay [4], the mortality at 4 mg/m2 was 80 to 100% and the mortality at 20 mg/m2 lay within 80 to 100%. Also, the mortality at 4 ppm in the assay with Myzus persicae [2] amounted to 100%. Moreover, in the assay on Rhipicephalus sanguineus, the pest or weed control at 1 µg/cm2, 100 g/ha worked out at 100% and the pest or weed control at 5 µg/cm2, 500 g/ha is 100%. The mortality at 100 g/ha in the assay with Myzus persicae [3] amounted to 100%.
Take `Cc1nc([C@H](C)NC(=O)c2cc(Cl)cc(C(F)F)c2)n(-c2ccc(C#N)cn2)n1` [II-65]: in assay [1], the mortality at 4 mg/m2 was 80 to 100% and the mortality at 20 mg/m2 was 80 to 100%. The mortality at 100 ppm with Ctenocephalides felis was found to be 100%. In assay [4], the mortality at 4 mg/m2 was 80 to 100% and the mortality at 20 mg/m2 was 80 to 100%. Moreover, the mortality at 4 ppm with Myzus persicae [2] was 100%. For the same compound, in the assay on Rhipicephalus sanguineus, the pest or weed control at 1 µg/cm2, 100 g/ha worked out at 100% and the pest or weed control at 5 µg/cm2, 500 g/ha worked out at 100%. In addition, the mortality at 100 g/ha in the assay with Myzus persicae [3] was 90%.
Regarding `Cc1nc([C@H](C)NC(=O)c2cc(C(F)(F)F)cc(C(F)(F)F)c2)n(-c2ccc(C(=O)N(C)CC#N)cn2)n1` [II-99], in assay [1], the mortality at 20 mg/m2 was in the range of 80 to 100%. Further, in assay [4], the mortality at 4 mg/m2 is 80 to 100% and the mortality at 20 mg/m2 is 80 to 100%. In the assay on Myzus persicae [2], the mortality at 0.8 ppm came out at 100% and the mortality at 4 ppm was determined as 100%. In the assay on Rhipicephalus sanguineus, the pest or weed control at 1 µg/cm2, 100 g/ha is 100% and the pest or weed control at 5 µg/cm2, 500 g/ha was determined as 100%. In addition, the mortality at 100 g/ha in the assay on Myzus persicae [3] was 90%.
For the compound `C[C@H](NC(=O)c1cc(OC(F)(F)F)cc(C(F)F)c1)c1ncnn1-c1ccc(C#N)cn1` [II-111], in assay [1], the mortality at 4 mg/m2 fell in the range of 80 to 100%. For the same compound, the mortality at 20 mg/m2 in assay [4] lay in the range of 80 to 100%. For the same compound, in the assay with Myzus persicae [2], the mortality at 0.8 ppm amounted to 90% and the mortality at 4 ppm came out at 100%. Moreover, in the assay with Rhipicephalus sanguineus, the pest or weed control at 1 µg/cm2, 100 g/ha is 100% and the pest or weed control at 5 µg/cm2, 500 g/ha worked out at 100%.
As for `Cc1nc([C@H](C)NC(=O)c2cc(OC(F)(F)F)cc(C(F)F)c2)n(-c2ccc(C#N)cn2)n1` [II-117], in assay [1], the mortality at 4 mg/m2 fell in the range of 80 to 100% and the mortality at 20 mg/m2 was in the range of 80 to 100%. Moreover, in assay [4], the mortality at 4 mg/m2 was in the range of 80 to 100% and the mortality at 20 mg/m2 was in the range of 80 to 100%. In the assay with Myzus persicae [2], the mortality at 0.8 ppm came to 100% and the mortality at 4 ppm came out at 100%. Moreover, in the assay with Rhipicephalus sanguineus, the pest or weed control at 1 µg/cm2, 100 g/ha turned out to be 100% and the pest or weed control at 5 µg/cm2, 500 g/ha was 100%. Besides, the mortality at 100 g/ha with Myzus persicae [3] was determined as 100%.
